pEC50, pIC50: −log10 of the molar value. ≈ marks a conversion by molar mass, not a printed value.
Key:
Pseudomonas aeruginosa [1] = assay: Antibacterial activity against Pseudomonas aeruginosa 27853 assessed as inhibition of bacterial growth at 3.2 microg/ml incubated for 24 hrs by absorbance based microplate reader analysis relative to control; assay type: functional; parameters: scale not given: the % may be the effect or the level left; conditions: dose 3.2 µg/ml
Pseudomonas aeruginosa [2] = assay: Antibiofilm activity against Pseudomonas aeruginosa PAO1 assessed as inhibition of biofilm formation incubated for 24 hrs by crystal violet staining based assay; assay type: functional, organism-based; conditions: PAO1, 24 h
[3] = Inhibition of quorum sensing system in Pseudomonas aeruginosa PA14 assessed as inhibition of pyocyanin production
[4] = target: T1, Transcriptional regulator MvfR (Pseudomonas aeruginosa PA14, UniProt A0A072ZLE6); assay: Antagonist activity at PqsR in wild-type Pseudomonas aeruginosa PAO1 assessed as reduction in AQ level at 0.2 uM by LCMS/MS analysis
T1 sequence (A0A072ZLE6 whole entry): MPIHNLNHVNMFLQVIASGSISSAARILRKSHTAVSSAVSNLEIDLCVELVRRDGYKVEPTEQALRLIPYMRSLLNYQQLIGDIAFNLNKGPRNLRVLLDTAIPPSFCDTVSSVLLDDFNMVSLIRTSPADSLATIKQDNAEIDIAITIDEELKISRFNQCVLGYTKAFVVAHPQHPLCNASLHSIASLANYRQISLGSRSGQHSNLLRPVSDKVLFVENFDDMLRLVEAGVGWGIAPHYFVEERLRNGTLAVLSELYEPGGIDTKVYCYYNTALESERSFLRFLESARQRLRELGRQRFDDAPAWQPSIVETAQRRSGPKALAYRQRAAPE

[5] = target: T1, Transcriptional regulator MvfR; assay: Antagonist activity at PqsR in wild-type Pseudomonas aeruginosa PA14 assessed as reduction in AQ level at 0.2 uM by LCMS/MS analysis
Pseudomonas aeruginosa [6] = assay: Antibiofilm activity against Pseudomonas aeruginosa ATCC 27853 assessed as reduction in biofilm formation at 1/6 times of MIC after 24 hrs by crystal violet staining based assay; assay type: functional; parameters: scale not given: the % may be the effect or the level left
Pseudomonas aeruginosa [7] = assay: Anti-motility activity against Pseudomonas aeruginosa PAO1 assessed as reduction in swarming at 50 ug/ml incubated for 16 hrs by crystal violet staining analysis; assay type: functional; parameters: scale not given: the % may be the effect or the level left; conditions: dose 50 µg/ml
Acinetobacter baumannii [8] = assay: Antibiofilm activity against Acinetobacter baumannii ATCC 19606 assessed as inhibition of biofilm formation at 66.5 ug/ml by crystal violet assay; assay type: functional; parameters: scale not given: the % may be the effect or the level left; conditions: dose 66.5 µg/ml
Pseudomonas aeruginosa [9] = assay: Anti-motility activity against Pseudomonas aeruginosa PAO1 assessed as reduction in swarming at 100 ug/ml incubated for 16 hrs by crystal violet staining analysis; assay type: functional; parameters: scale not given: the % may be the effect or the level left; conditions: dose 100 µg/ml
Pseudomonas aeruginosa [10] = assay: Antibiofilm activity against Pseudomonas aeruginosa PAO1 assessed as inhibition of biofilm formation incubated for 8 hrs by crystal violet based; assay type: functional, organism-based; conditions: PAO1, 8 h
Pseudomonas aeruginosa [11] = assay: Antibiofilm activity against Pseudomonas aeruginosa assessed as reduction in biofilm formation incubated for 24 hrs by microscopic analysis; assay type: functional, organism-based
Staphylococcus aureus [12] = assay: Antimicrobial activity against methicillin-sensitive Staphylococcus aureus ATCC 35556 assessed as reduction in microbial growth incubated for 24 hrs by broth microdilution method; assay type: functional, organism-based; conditions: ATCC 35556, 24 h
Staphylococcus aureus [13] = assay: Antimicrobial activity against methicillin-resistant Staphylococcus aureus ATCC 43866 assessed as reduction in microbial growth incubated for 24 hrs by broth microdilution method; assay type: functional, organism-based; conditions: ATCC 43866, 24 h
Pseudomonas aeruginosa [14] = assay: Antimicrobial activity against Pseudomonas aeruginosa ATCC 9027 assessed as reduction in microbial growth by serial dilution method; assay type: functional, organism-based
Staphylococcus aureus [15] = assay: Antibacterial activity against Staphylococcus aureus MLS16 MTCC 2940 assessed as bacterial growth inhibition measured after 24 hrs by microdilution assay; assay type: functional
Micrococcus luteus = assay: Antibacterial activity against Micrococcus luteus MTCC 2470 assessed as inhibition of bacterial growth incubated for 24 hrs by agar well diffusion method; assay type: functional
Staphylococcus aureus [16] = assay: Antibacterial activity against Staphylococcus aureus MTCC 96 assessed as reduction in microbial growth after 24 hrs by CLSI based microdilution method; assay type: functional
Pseudomonas aeruginosa [17] = assay: Antibiofilm activity against Pseudomonas aeruginosa PAO1 assessed as reduction in biofilm formation at 25 uM relative to control; assay type: functional; parameters: scale not given: the % may be the effect or the level left
Pseudomonas aeruginosa [18] = assay: Antibiofilm activity against Pseudomonas aeruginosa PAO1 assessed as reduction in biofilm formation at 50 uM relative to control; assay type: functional; parameters: scale not given: the % may be the effect or the level left
Pseudomonas aeruginosa [19] = assay: Antibiofilm activity against Pseudomonas aeruginosa PAO1 assessed as reduction in biofilm formation at 12.5 uM relative to control; assay type: functional; parameters: scale not given: the % may be the effect or the level left
[20] = Inhibition of quorum sensing system in Pseudomonas aeruginosa PAO1 assessed as inhibition of pyocyanin production at 12.5 uM incubated for 24 hrs by absorbance based assay relative to control
Staphylococcus aureus [21] = assay: Antibiofilm activity against Staphylococcus aureus ATCC 6538 assessed as inhibition of biofilm formation incubated for 24 hrs by crystal violet staining based analysis; assay type: functional, organism-based; conditions: ATCC 6538, 24 h
Staphylococcus aureus [22] = assay: Antibacterial activity against Staphylococcus aureus ATCC 25923 assessed as bacterial growth inhibition measured after 18 hrs by CLSI protocol based two-fold serial microdilution method; assay type: functional, organism-based; conditions: ATCC 25923, 18 h
Acinetobacter baumannii [23] = assay: Antibacterial activity against Acinetobacter baumannii ATCC 19606 assessed as growth inhibition incubated for 18 hrs by resazurin dye based assay; assay type: functional, organism-based; conditions: ATCC 19606, 18 h
Pseudomonas aeruginosa [24] = assay: Antibiofilm activity against Pseudomonas aeruginosa PAO1 assessed as inhibition of biofilm formation at 100 microg/ml relative to control; assay type: functional; parameters: scale not given: the % may be the effect or the level left; conditions: dose 100 µg/ml
Staphylococcus aureus [25] = assay: Antibiofilm activity against Staphylococcus aureus ATCC 25923 assessed as inhibition of biofilm formation; assay type: functional, organism-based
Staphylococcus aureus [26] = assay: Inhibition of Staphylococcus aureus Sortase A at 100 uM relative to control
Streptococcus mutans = assay: Antibiofilm activity against Streptococcus mutans ATCC 25175 assessed as inhibition of biofilm formation incubated for 24 hrs by crystal violet staining based analysis; assay type: functional, organism-based; conditions: ATCC 25175, 24 h
Staphylococcus aureus [27] = assay: Antibacterial activity against Staphylococcus aureus assessed as bacterial growth inhibition; assay type: functional, organism-based
Enterococcus faecium = assay: Antibacterial activity against Vancomycin-resistant Enterococcus faecium ATCC 51559 assessed as reduction in bacterial growth incubated for 18 hrs by spectrophotometry based analysis; assay type: functional, organism-based; conditions: ATCC 51559, 18 h
Staphylococcus aureus [28] = assay: Antibiofilm activity against methicillin-resistant Staphylococcus aureus assessed as inhibition of biofilm formation incubated for 8 hrs by crystal violet staining based analysis; assay type: functional, organism-based
Pseudomonas aeruginosa [29] = assay: Antibiofilm activity against wild type Pseudomonas aeruginosa PAO1 assessed as inhibition of biofilm formation at 100 uM incubated for 24 hrs by crystal violet staining based analysis relative to control; assay type: functional; parameters: scale not given: the % may be the effect or the level left
Staphylococcus aureus [30] = assay: Antibiofilm activity against Staphylococcus aureus ATCC 25923 at 3.1 ug/ml measured after 24 hrs by crystal violet staining based analysis relative to control; assay type: functional; conditions: dose 3.1 µg/ml
Staphylococcus aureus [31] = assay: Antibiofilm activity against Staphylococcus aureus ATCC 29213 at 3.1 ug/ml measured after 24 hrs by crystal violet staining based analysis relative to control; assay type: functional; conditions: dose 3.1 µg/ml
Staphylococcus aureus [32] = assay: Antibiofilm activity against Staphylococcus aureus BAA 1708 at 3.1 ug/ml measured after 24 hrs by crystal violet staining based analysis relative to control; assay type: functional; conditions: dose 3.1 µg/ml
Pseudomonas aeruginosa [33] = assay: Antibiofilm activity against Pseudomonas aeruginosa PAO1 assessed as inhibition of biofilm formation at 10 microg/ml relative to control; assay type: functional; parameters: scale not given: the % may be the effect or the level left; conditions: dose 10 µg/ml
Pseudomonas aeruginosa [34] = assay: Antimicrobial activity against Pseudomonas aeruginosa PAO1 assessed as inhibition of microbial growth by microdilution broth method; assay type: functional

For `CC[C@H]1OC(=O)[C@H](C)[C@@H](O[C@H]2C[C@@](C)(OC)[C@@H](O)[C@H](C)O2)[C@H](C)[C@@H](O[C@@H]2O[C@H](C)C[C@H](N(C)C)[C@H]2O)[C@](C)(OC)C[C@@H](C)C(=O)[C@H](C)[C@@H](O)[C@]1(C)O` [CLARITHROMYCIN], the Activity (Pseudomonas aeruginosa [1]) was 29.11%.

Compound `Cc1cccc(/C=C2/C(c3cccc(C)c3)=CC(=O)N2Cc2ccccc2)c1` has a pIC50 (Pseudomonas aeruginosa [2]) of 6.59 and a pIC50 [3] of 6.55.

With `O=CN1N=C(c2ccccc2)CC1c1cccc(Nc2ccnc3cc(Cl)ccc23)c1` (configuration not stated) the pIC50 [4] was 4.91 and the pIC50 [5] was 5.64.

In the case of `COc1ccc(CC(=O)OC2OC(=O)C(Br)=C2Br)cc1OC` (configuration not stated), the Activity (Pseudomonas aeruginosa [6]) was 63%.

Compound `O=C(/C=C/c1ccc(C(F)(F)F)cc1)c1ccccc1O` has an Activity (Pseudomonas aeruginosa [7]) of 21.91%, an Activity (Acinetobacter baumannii [8]) of 56.8% and an Activity (Pseudomonas aeruginosa [9]) of 31.74%.

`Cc1ccc(NC(=O)Cn2c(N)nc(Cc3ccc(C(C)(C)C)cc3)c2-c2ccccc2Br)cc1` gave a pIC50 (Pseudomonas aeruginosa [10]) of 4.00.

With `Nc1nc2ccccc2[nH]1` the pIC50 (Pseudomonas aeruginosa [11]) was 4.33.

Compound `Cn1c(C(=O)N/N=C/c2ccc(Oc3c(Cl)cccc3Cl)cc2)cc(Br)c1Br` has an IC50 (Staphylococcus aureus [12]) of 0.39 µg/mL and an IC50 (Staphylococcus aureus [13]) of 0.78 µg/mL.

`O=C1C=C(c2ccc(F)cc2)/C(=C/Sc2ccccn2)N1` showed a pIC50 (Pseudomonas aeruginosa [14]) of 4.49.

Work on `CCCCCCCCc1ccc(C(F)(F)F)nc1OCc1cn(C#N)nn1` yielded an MIC (Staphylococcus aureus [15]) of 9.37 µM (≈ 3.57 µg/mL), an MIC (Micrococcus luteus) of 18.8 µM (≈ 7.15 µg/mL) and an MIC (Staphylococcus aureus [16]) of 9.37 µM.

In the case of `CCCCCCSSc1nc2ccccc2c(=O)[nH]1`, the Activity (Pseudomonas aeruginosa [17]) was 43%, the Activity (Pseudomonas aeruginosa [18]) was 46% and the Activity (Pseudomonas aeruginosa [19]) was 38%. It also gave an inhibition [20] of 94%.

Compound `CCOC(=O)c1nn(-c2ccc(Cl)cc2)cc1C(=O)c1cc2cc(CN3CCN(Cc4ccc5oc(C(=O)c6cn(-c7ccc(Cl)cc7)nc6C(=O)OCC)cc5c4)CC3)ccc2o1` has a pIC50 (Staphylococcus aureus [21]) of 5.38.

For `C/C(=C\c1ccccc1)Cn1cc(CCCCCc2c[nH]c(N)n2)nn1`, the pIC50 (Staphylococcus aureus [22]) was 6.09 and the pIC50 (Acinetobacter baumannii [23]) was 6.01.

With `COc1ccccc1/C=C/C(=O)c1ccccc1O` the Activity (Pseudomonas aeruginosa [24]) was 57%.

With `CC(C)(C)OC(=O)NCCn1cc(-c2nc(-c3c[nH]c4ncccc34)cs2)c2ccccc21` the pIC50 (Staphylococcus aureus [25]) was 4.92 and the inhibition (Staphylococcus aureus [26]) was 47.8%.

Work on `CCOC(=O)c1nn(-c2ccc([N+](=O)[O-])cc2)cc1C(=O)c1cc2cc(CN3CCN(Cc4ccc5oc(C(=O)c6cn(-c7ccc([N+](=O)[O-])cc7)nc6C(=O)OCC)cc5c4)CC3)ccc2o1` yielded a pIC50 (Streptococcus mutans) of 5.24.

In the case of `Nc1nc2cc(NC(=O)c3c(Cl)c(Cl)c(Cl)c(Cl)c3C(=O)O)ccc2[nH]1`, the pEC50 (Staphylococcus aureus [27]) was greater than 5.10, the pEC50 (Enterococcus faecium) was 4.12 and the pIC50 (Staphylococcus aureus [28]) was 5.82.

Work on `Nc1nc2ccc(/C=C/c3ccccc3)cc2[nH]1` yielded an Activity (Pseudomonas aeruginosa [29]) of 56%.

`COc1ccc(CC(=O)[N-]c2c([N+]#N)c(C)nn2C)cc1` gave an Activity (Staphylococcus aureus [30]) of 38%, an Activity (Staphylococcus aureus [31]) of 45.7% and an Activity (Staphylococcus aureus [32]) of 25%.

Compound `O=C(/C=C/c1ccc(O)c(O)c1)OCCc1ccc(Br)cc1` has an Activity (Pseudomonas aeruginosa [33]) of 33.69% and an MIC (Pseudomonas aeruginosa [34]) greater than 512 µM.
